Experimental data from ChEMBL document CHEMBL1155762, “A new naphthopyrone derivative from Cassia quinquangulata and structural revision of quinquangulin and its glycosides” (2001).
Values after ≈ are worked out from the molar mass of the structure shown.

Key:
Staphylococcus aureus [1] = experiment: Antibacterial activity against Staphylococcus aureus ATCC 6538 after 24 hrs; assay type: functional; conditions: ATCC 6538, 24 h
Staphylococcus aureus [2] = experiment: Antibacterial activity against methicillin-resistant Staphylococcus aureus ATCC 33591 after 24 hrs; assay type: functional; conditions: ATCC 33591, 24 h

Row | Structure (SMILES) | MIC (Staphylococcus aureus [1]) | MIC (Staphylococcus aureus [2])
1 | COc1cc(O)c2c(O)c3c(=O)cc(C)oc3cc2c1C [QUINQUANGULIN] | 3.12 µg/mL (≈ 10.9 µM) | 6.25 µg/mL (≈ 21.8 µM)
2 | CO[C@H]1/C=C/O[C@@]2(C)Oc3c(C)c(O)c4c(O)c(c(/C=N/N5CCN(C)CC5)c(O)c4c3C2=O)NC(=O)/C(C)=C\C=C\[C@H](C)[C@H](O)[C@@H](C)[C@@H](O)[C@@H](C)[C@H](OC(C)=O)[C@@H]1C [RIFAMPIN] | 0.005 µg/mL (≈ 0.00608 µM) | < 0.005 µg/mL
3 | CC[C@H]1OC(=O)[C@H](C)[C@@H](O[C@H]2C[C@@](C)(OC)[C@@H](O)[C@H](C)O2)[C@H](C)[C@@H](O[C@@H]2O[C@H](C)C[C@H](N(C)C)[C@H]2O)[C@](C)(O)C[C@@H](C)C(=O)[C@H](C)[C@@H](O)[C@]1(C)O [ERYTHROMYCIN] | 1.25 µg/mL (≈ 1.7 µM) | –
